Earlier results, collected in patent US8440655B2, “Combination therapy for the treatment of diabetes” (Theracos, Inc., priority 2010, dated 2013).

What was measured:
muscarinic receptor = conditions: result in words
cortical receptors = conditions: (+) form compared to (−) isomer
cardiac receptors = conditions: (+) form compared to (−) form
[1] = at 90 degrees

antimuscarinic activity (muscarinic receptor) | factor by which the (+) form is more effective than the (−) isomer (cortical receptors) | factor by which the (+) form is more potent than the (−) form (cardiac receptors) | half time of interconversion of the two forms [1] | Structure (SMILES)
considerably less active |  |  |  | Cc1scc2c1N(C(=O)CN1CCN(C)CC1)c1ccccc1NC2=O [(−) form]
potent antimuscarinic activity | 400 | 50 |  | Cc1scc2c1N(C(=O)CN1CCN(C)CC1)c1ccccc1NC2=O [(+) form of telenzepine]
 |  |  | approximately 200 hours | Cc1scc2c1N(C(=O)CN1CCN(C)CC1)c1ccccc1NC2=O [Telenzepine, 4,9-Dihydro-3-methyl-4-[(4-methyl-1-piperazinyl)acetyl]-10H-thieno[3,4-b][1,5]benzodiazepin-10-one]
